Data: paper PMC4306921 (Scientific Reports, 2015)
Each block holds one compound with its values, some of them ahead of it.

Tests used:
Assay type in all cases: cell-based
293T cells = settings: no receptor plasmid, 10 μM 5-HT, 12–24 h
CHO-K1 cells = settings: CHO-K1, no receptor plasmid, 10 μM 5-HT, 12–24 h
adenylyl cyclase = assay: FSK stimulation in the CRE-luc reporter gene assay system; settings: read-out: EC50 value of FSK in reporter gene assay system; data not shown
5-HT2A receptor = 5-HT2A receptor (Homo sapiens, UniProt P28223); assay: CRE-luc luciferase reporter gene assay, 5-HT2A transfected CHO-K1 cells; settings: 5-HT2A transfected cells, 0.1 μM antagonist, 5-HT lower than 1 μM
5-HT2A receptor, sequence (P28223 whole entry): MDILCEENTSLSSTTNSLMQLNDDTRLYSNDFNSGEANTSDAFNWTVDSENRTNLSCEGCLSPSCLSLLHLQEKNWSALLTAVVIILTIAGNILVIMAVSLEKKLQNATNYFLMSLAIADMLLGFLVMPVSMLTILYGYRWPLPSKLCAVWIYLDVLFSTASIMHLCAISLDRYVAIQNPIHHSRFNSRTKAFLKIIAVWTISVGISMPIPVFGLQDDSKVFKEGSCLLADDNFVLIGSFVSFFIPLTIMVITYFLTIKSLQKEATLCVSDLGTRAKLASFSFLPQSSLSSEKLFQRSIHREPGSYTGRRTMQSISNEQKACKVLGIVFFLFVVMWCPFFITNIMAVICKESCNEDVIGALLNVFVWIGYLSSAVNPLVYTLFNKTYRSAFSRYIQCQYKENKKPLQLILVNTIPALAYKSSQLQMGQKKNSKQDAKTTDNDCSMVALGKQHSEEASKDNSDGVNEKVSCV

SMILES: NCCc1c[nH]c2ccc(O)cc12 [5-HT]
nonspecific/endogenous activation of CRE-luc by 5-HT (293T cells): significantly expression of luciferase was detected
nonspecific/endogenous activation of CRE-luc by 5-HT (CHO-K1 cells): no nonspecific and endogenous activation was observed

EC50 (adenylyl cyclase): 780 nM
SMILES: C=C[C@@]1(C)CC(=O)[C@]2(O)[C@@]3(C)[C@@H](O)CCC(C)(C)[C@@H]3[C@H](O)[C@H](OC(C)=O)[C@@]2(C)O1 [FSK]

suppression of luciferase reporter gene expression (5-HT2A receptor): significantly suppress
SMILES: CSc1ccc2c(c1)C(N1CCN(C)CC1)Cc1ccccc1S2 (stereo not shown) [Methiothepin]
